What was measured:
[1] = target: T1, Metabotropic glutamate receptor 2 (Homo sapiens, UniProt Q14416); test: Displacement of [3H]-LY459477 from recombinant human mGlu2 receptor expressed in HEK cell membranes after 90 mins by liquid scintillation counting
[2] = target: T2, Metabotropic glutamate receptor 3 (Homo sapiens, UniProt Q14832); test: biochemical
Description: Displacement of [3H]-LY459477 from recombinant human mGlu3 receptor expressed in HEK cell membranes after 90 mins by liquid scintillation counting

[3] = target: T1, Metabotropic glutamate receptor 2; test: Agonist activity at human mGlu2 receptor expressed in HEK cells assessed as inhibition of forskolin-stimulated cAMP formation after 20 mins by HTRF assay; assay type: functional, cell-based
[4] = target: T2, Metabotropic glutamate receptor 3
Description: Agonist activity at human mGlu3 receptor expressed in HEK cells assessed as inhibition of forskolin-stimulated cAMP formation after 20 mins by HTRF assay

[5] = target: T1, Metabotropic glutamate receptor 2; test: Antagonist activity at human mGlu2 receptor expressed in HEK cells assessed as reversal of DCG-4 inhibited forskolin-stimulated cAMP formation after 20 mins by HTRF assay; assay type: functional, cell-based
[6] = target: T2, Metabotropic glutamate receptor 3; test: Antagonist activity at human mGlu3 receptor expressed in HEK cells assessed as reversal of DCG-4 inhibited forskolin-stimulated cAMP formation after 20 mins by HTRF assay; assay type: functional, cell-based

T1 sequence (Q14416 whole entry): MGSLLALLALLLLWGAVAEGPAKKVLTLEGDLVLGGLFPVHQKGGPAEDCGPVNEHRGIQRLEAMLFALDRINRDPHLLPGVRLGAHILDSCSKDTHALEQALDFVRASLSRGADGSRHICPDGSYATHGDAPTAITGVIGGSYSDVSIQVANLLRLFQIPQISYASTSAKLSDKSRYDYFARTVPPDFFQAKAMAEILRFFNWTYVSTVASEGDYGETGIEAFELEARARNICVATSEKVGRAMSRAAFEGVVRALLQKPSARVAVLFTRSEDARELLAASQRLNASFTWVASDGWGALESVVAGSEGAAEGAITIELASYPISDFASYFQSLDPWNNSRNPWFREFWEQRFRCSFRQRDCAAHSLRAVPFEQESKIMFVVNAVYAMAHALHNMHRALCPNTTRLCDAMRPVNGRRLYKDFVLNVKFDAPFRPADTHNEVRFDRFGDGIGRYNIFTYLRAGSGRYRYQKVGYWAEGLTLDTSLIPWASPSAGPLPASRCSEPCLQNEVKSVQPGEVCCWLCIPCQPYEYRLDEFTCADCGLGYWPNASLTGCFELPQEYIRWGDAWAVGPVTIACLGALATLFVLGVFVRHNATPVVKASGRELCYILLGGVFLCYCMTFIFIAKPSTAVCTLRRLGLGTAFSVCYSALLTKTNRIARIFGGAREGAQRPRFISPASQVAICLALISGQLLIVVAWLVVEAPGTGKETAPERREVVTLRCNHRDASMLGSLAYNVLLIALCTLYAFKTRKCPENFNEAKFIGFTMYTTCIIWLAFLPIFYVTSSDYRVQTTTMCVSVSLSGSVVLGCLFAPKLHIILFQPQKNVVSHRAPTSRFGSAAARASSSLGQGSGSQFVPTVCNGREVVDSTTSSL
T2 sequence (Q14832 whole entry): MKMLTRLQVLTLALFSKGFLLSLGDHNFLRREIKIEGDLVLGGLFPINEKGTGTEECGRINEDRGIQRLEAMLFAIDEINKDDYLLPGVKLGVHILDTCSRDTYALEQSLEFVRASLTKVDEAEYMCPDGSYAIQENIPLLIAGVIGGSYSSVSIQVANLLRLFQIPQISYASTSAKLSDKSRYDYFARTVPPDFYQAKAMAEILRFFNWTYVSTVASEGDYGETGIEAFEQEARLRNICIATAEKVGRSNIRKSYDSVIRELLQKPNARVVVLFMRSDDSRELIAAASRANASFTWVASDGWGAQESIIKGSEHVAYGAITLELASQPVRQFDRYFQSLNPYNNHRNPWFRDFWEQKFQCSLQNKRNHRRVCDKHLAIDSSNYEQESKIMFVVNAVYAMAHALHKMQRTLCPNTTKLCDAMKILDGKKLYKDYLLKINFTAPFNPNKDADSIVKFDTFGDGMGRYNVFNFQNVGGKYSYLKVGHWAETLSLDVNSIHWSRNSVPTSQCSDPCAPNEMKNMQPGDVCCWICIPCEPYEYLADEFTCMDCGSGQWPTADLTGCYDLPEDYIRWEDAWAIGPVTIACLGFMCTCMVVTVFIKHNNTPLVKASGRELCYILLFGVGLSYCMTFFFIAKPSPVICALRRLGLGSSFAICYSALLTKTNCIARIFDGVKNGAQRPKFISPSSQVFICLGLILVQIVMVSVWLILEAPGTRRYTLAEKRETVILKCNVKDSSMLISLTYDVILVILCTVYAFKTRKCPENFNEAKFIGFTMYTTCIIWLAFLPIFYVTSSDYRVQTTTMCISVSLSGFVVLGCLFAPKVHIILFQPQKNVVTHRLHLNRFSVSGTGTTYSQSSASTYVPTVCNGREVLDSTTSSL

| Ki [1] | Ki [2] | EC50 [3] | EC50 [4] | IC50 [5] | IC50 [6] | SMILES |
| --- | --- | --- | --- | --- | --- | --- |
| 4.41 µM | 0.284 µM |  |  |  |  | N[C@H]1C[C@@](N)(C(=O)O)[C@@H]2[C@@H](C(=O)O)[C@@H]21 |
| 0.0547 µM | 0.00934 µM | 0.00632 µM | 0.00212 µM |  |  | N[C@@]1(C(=O)O)C[C@H](NC(=O)c2ccc(O)cc2)[C@H]2[C@H](C(=O)O)[C@H]21 |
| 0.0853 µM | 0.00047 µM | 0.00837 µM | 0.00082 µM |  |  | N[C@@]1(C(=O)O)C[C@H](NC(=O)c2cccc(Cl)c2)[C@H]2[C@H](C(=O)O)[C@H]21 |
| 0.0582 µM | 0.00179 µM | 0.00744 µM | 0.00017 µM |  |  | N[C@@]1(C(=O)O)C[C@H](NC(=O)c2ccccc2O)[C@H]2[C@H](C(=O)O)[C@H]21 |
| 0.188 µM | 0.00456 µM | 0.016 µM | 0.00244 µM |  |  | COc1ccc(C(=O)N[C@H]2C[C@@](N)(C(=O)O)[C@@H]3[C@@H](C(=O)O)[C@@H]32)cc1 |
| 0.137 µM | 0.00229 µM | 0.00697 µM | 0.00515 µM |  |  | N[C@@]1(C(=O)O)C[C@H](NC(=O)c2ccc(Cl)cc2)[C@H]2[C@H](C(=O)O)[C@H]21 |
| 0.214 µM | 0.00211 µM | 0.0181 µM | 0.002 µM |  |  | N[C@@]1(C(=O)O)C[C@H](NC(=O)c2cccc(F)c2)[C@H]2[C@H](C(=O)O)[C@H]21 |
| 0.0315 µM | 0.00227 µM | 0.00377 µM | 0.00071 µM |  |  | N[C@@]1(C(=O)O)C[C@H](NC(=O)c2cccc(O)c2)[C@H]2[C@H](C(=O)O)[C@H]21 |
| 0.151 µM | 0.0232 µM | 0.0265 µM | 0.00715 µM |  |  | COc1ccccc1C(=O)N[C@H]1C[C@@](N)(C(=O)O)[C@@H]2[C@@H](C(=O)O)[C@@H]21 |
| 0.33 µM | 0.00434 µM | 0.0191 µM | 0.0066 µM |  |  | N[C@@]1(C(=O)O)C[C@H](NC(=O)c2ccc(F)cc2)[C@H]2[C@H](C(=O)O)[C@H]21 |
| 0.898 µM | 0.177 µM |  |  |  |  | CC(=O)N[C@H]1C[C@@](N)(C(=O)O)[C@@H]2[C@@H](C(=O)O)[C@@H]21 |
| 0.595 µM | 0.281 µM | 0.893 µM | > 25 µM | 5.54 µM | 2.05 µM | N[C@@]1(C(=O)O)C[C@H](NC(=O)CCc2ccccc2)[C@H]2[C@H](C(=O)O)[C@H]21 |
| 0.391 µM | 0.0274 µM | 0.0425 µM | 0.00496 µM |  |  | N[C@@]1(C(=O)O)C[C@H](NC(=O)c2ccccc2Cl)[C@H]2[C@H](C(=O)O)[C@H]21 |
| 0.218 µM | 0.00579 µM | 0.0171 µM | 0.0051 µM |  |  | N[C@@]1(C(=O)O)C[C@H](NC(=O)c2ccccc2F)[C@H]2[C@H](C(=O)O)[C@H]21 |
| 0.294 µM | 0.00675 µM | 0.0198 µM | 0.00496 µM |  |  | N[C@@]1(C(=O)O)C[C@H](NC(=O)c2ccccc2)[C@H]2[C@H](C(=O)O)[C@H]21 |
| 11.2 µM | 1.07 µM | 0.508 µM | 0.356 µM |  |  | N[C@@]1(C(=O)O)C[C@H](NCc2ccccc2)[C@H]2[C@H](C(=O)O)[C@H]21 |
| 1.52 µM | 0.757 µM | 3.39 µM | > 25 µM | 12 µM | 9.99 µM | N[C@@]1(C(=O)O)C[C@H](NC(=O)C2CCCCC2)[C@H]2[C@H](C(=O)O)[C@H]21 |

Source: ChEMBL document CHEMBL4020826 (J Med Chem, 2018)
